Tests used:
[1] = molecular target: T1, human recombinant TYK2 protein (Homo sapiens, UniProt P29597); assay: TYK2 Inhibition Assay (HTRF kinase assay); assay type: biochemical; details: human recombinant TYK2, 11.25 μM ATP substrate solution
T1 construct: purchased Carna Biosciences 08-147
T1 sequence (P29597 871-1187 limits assumed): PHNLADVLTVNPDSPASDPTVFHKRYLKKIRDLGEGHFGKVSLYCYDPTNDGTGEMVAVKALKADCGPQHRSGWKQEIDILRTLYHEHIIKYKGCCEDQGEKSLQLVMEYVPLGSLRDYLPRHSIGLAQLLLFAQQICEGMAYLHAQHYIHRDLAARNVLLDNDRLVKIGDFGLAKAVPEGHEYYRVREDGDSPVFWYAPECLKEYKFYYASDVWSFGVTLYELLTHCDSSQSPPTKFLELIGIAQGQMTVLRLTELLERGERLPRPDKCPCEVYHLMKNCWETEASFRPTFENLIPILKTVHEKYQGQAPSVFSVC
How it was run: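 Recombinant human TYK2 was pre-incubated 15 min at room temperature with compound, then reacted for 40 min with biotinylated tyrosine-kinase substrate and ATP (substrate solution 11.25 μM ATP, 0.5 μM substrate; 5 mM MgCl2, 0.01% Brij35). Phosphorylation was read by HTRF 665/620 ratio, normalised to no-enzyme and no-compound controls, and IC50 was fitted from 8 4-fold dilutions.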

[2] = tested on: IL-12-induced IFN-γ secretion in NK92 cells; assay: Inhibition of IL-12-induced IFN-γ Secretion in NK92 Cells (ELISA); assay type: cell-based, human; details: Homo sapiens, 24 hours incubation, 8 concentration points, read-out: IC50 (NK92_IL12/IFNγ)
How it was run: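 NK92 cells (100,000/well, IL-2-free medium) rested overnight, then treated with compound plus IL-12 for 24 h at 37 °C. Secreted IFN-γ measured in supernatant by ELISA. Inhibition normalized to unstimulated and IL-12/0.2% DMSO controls; IC50 fitted from 8 concentrations.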

[3] = molecular target: T2, human recombinant JAK2 protein (Homo sapiens, UniProt O60674); assay: JAK2 Inhibition Assay (HTRF kinase assay); assay type: biochemical; details: human recombinant JAK2, 2.5 μM ATP substrate solution
T2 construct: purchased Carna Biosciences 08-045
How it was run: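 Recombinant human JAK2 was preincubated 15 min at room temperature with compound in buffer containing 5 mM MgCl2, 1 mM DTT and 0.01% Brij35. Substrate solution (2.5 μM ATP, 0.25 μM biotinylated TK substrate) was then added for 30 min. Phosphorylation was detected by HTRF (665/620 nm ratio; no-enzyme = 100% inhibition), and IC50 was fitted from an 8-point, 4-fold series.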

T2 sequence (O60674 826-1132 limits assumed): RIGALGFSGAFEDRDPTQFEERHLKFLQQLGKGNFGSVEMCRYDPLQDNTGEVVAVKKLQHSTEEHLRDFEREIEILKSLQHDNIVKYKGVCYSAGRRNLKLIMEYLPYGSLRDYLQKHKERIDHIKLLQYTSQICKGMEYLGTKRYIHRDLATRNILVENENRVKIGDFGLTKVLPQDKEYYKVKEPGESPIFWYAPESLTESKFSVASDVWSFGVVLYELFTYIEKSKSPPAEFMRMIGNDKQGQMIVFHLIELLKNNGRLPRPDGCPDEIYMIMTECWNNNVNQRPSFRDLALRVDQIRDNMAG

SMILES | IC50 [1] [nM] | IC50 [2] [nM] | IC50 [3] [nM]
Cn1cc(Nc2ncc(Cl)c(N3C[C@@]4(C)CN(S(C)(=O)=O)C[C@@]4(C)C3)n2)cn1 [Compound 34, 5-chloro-4-((3aR,6aS)-3a,6a-dimethyl-5-(methylsulfonyl)hexahydropyrrolo[3,4-c]pyrrol-2(1H)-yl)-N-(1-methyl-1H-pyrazol-4-yl)pyrimidin-2-amine] | 0.6 | 287 | 1.8
Cn1cc(Nc2ncc(Cl)c(N3C[C@]4(C)CN(C(=O)C5COC5)C[C@]4(C)C3)n2)cn1 [Compound 39, ((3aR,6aS)-5-(5-chloro-2-((1-methyl-1H-pyrazol-4-yl)amino)pyrimidin-4-yl)-3a,6a-dimethylhexahydropyrrolo[3,4-c]pyrrol-2(1H)-yl)(oxetan-3-yl)methanone] | 4.4 | 919 | 11
CCS(=O)(=O)N1C[C@]2(C)CN(c3nc(Nc4cnn(C)c4)ncc3Cl)C[C@]2(C)C1 [Compound 41, 5-chloro-4-((3aR,6aS)-5-(ethylsulfonyl)-3a,6a-dimethylhexahydropyrrolo[3,4-c]pyrrol-2(1H)-yl)-N-(1-methyl-1H-pyrazol-4-yl)pyrimidin-2-amine] | 1.3 | 635 | 1.7
Cn1cc(Nc2ncc(Cl)c(N3C[C@]4(C)CN(C(=O)C5(C#N)CC5)C[C@]4(C)C3)n2)cn1 [Compound 42, 1-((3aR,6aS)-5-(5-chloro-2-((1-methyl-1H-pyrazol-4-yl)amino)pyrimidin-4-yl)-3a,6a-dimethyloctahydropyrrolo[3,4-c]pyrrole-2-carbonyl)cyclopropane-1-carbonitrile] | 5.7 | 3470 | 20
Cn1cc(Nc2ncc(Cl)c(N3C[C@]4(C)CN(C(=O)C5(O)CC5)C[C@]4(C)C3)n2)cn1 [Compound 43, ((3aR,6aS)-5-(5-chloro-2-((1-methyl-1H-pyrazol-4-yl)amino)pyrimidin-4-yl)-3a,6a-dimethylhexahydropyrrolo[3,4-c]pyrrol-2(1H)-yl)(1-hydroxycyclopropyl)methanone] | 4.5 | 3390 | 18
Cn1cc(Nc2ncc(Cl)c(N3C[C@]4(C)CN(C(=O)C(C)(C)O)C[C@]4(C)C3)n2)cn1 [Compound 44, 1-((3aR,6aS)-5-(5-chloro-2((1-methyl-1H-pyrazol-4-yl)amino)pyrimidin-4-yl)-3a,6a-dimethylhexahydropyrrolo[3,4-c]pyrrol-2(1H)-yl)-2-hydroxy-2-methylpropan-1-one] | 8.6 | 3620 | 20
Cn1cc(Nc2ncc(Cl)c(N3C[C@]4(C)CN(C(=O)C(C)(C)C#N)C[C@]4(C)C3)n2)cn1 [Compound 45, 3-((3aR,6aS)-5-(5-chloro-2-((1-methyl-1H-pyrazol-4-yl)amino)pyrimidin-4-yl)-3a,6a-dimethylhexahydropyrrolo[3,4-c]pyrrol-2(1H)-yl)-2,2-dimethyl-3-oxopropanenitrile] | 12 | 5390 | 19
Cn1cc(Nc2ncc(Cl)c(N3C[C@]4(C)CN(C(=O)c5ccccn5)C[C@]4(C)C3)n2)cn1 [Compound 47, ((3aR,6aS)-5-(5-chloro-2-((1-methyl-1H-pyrazol-4-yl)amino)pyrimidin-4-yl)-3a,6a-dimethylhexahydropyrrolo[3,4-c]pyrrol-2(1H)-yl)(pyridin-2-yl)methanone] | 13 | 7920 | 51
Cn1cc(Nc2ncc(Cl)c(N3C[C@]4(C)CN(Cc5ccno5)C[C@]4(C)C3)n2)cn1 [Compound 50, 5-chloro-4-((3aR,6aS)-5-(isoxazol-5-ylmethyl)-3a,6a-dimethylhexahydropyrrolo[3,4-c]pyrrol-2(1H)-yl)-N(1-methyl-1H-pyrazol-4-yl)pyrimidin-2-amine] | 0.3 | 43 | 0.1
CNC(=O)c1ccc(Nc2ncc(Cl)c(N3C[C@]4(C)CN(C(=O)C5CC5)C[C@]4(C)C3)n2)cn1 [Compound 51, 5-((5-chloro-4-((3aR,6aS)-5-(cyclopropanecarbonyl)-3a,6a-dimethylhexahydropyrrolo[3,4-c]pyrrol-2(1H)-yl)pyrimidin-2-yl)amino)-N-methylpicolinamide] | 2.7 | 597 | 7.3
C[C@@]12CN(C(=O)C3CC3)C[C@]1(C)CN(c1nc(Nc3ccc(C(=O)N4CCOCC4)nc3)ncc1Cl)C2 [Compound 53, ((3aR,6aS)-5-(5-chloro-2-((6-(morpholine-4-carbonyl)pyridin-3-yl)amino)pyrimidin-4-yl)-3a,6a-dimethylhexahydropyrrolo[3,4-c]pyrrol-2(1H)-yl)(cyclopropyl)methanone] | 3.2 | 918 | 3.8
Cn1cc(Nc2ncc(Cl)c(N3C[C@]4(C)CN(c5ccccn5)C[C@]4(C)C3)n2)cn1 [Compound 54, 5-chloro-4-((3aR,6aS)-3a,6a-dimethyl-5-(pyridin-2-yl)hexahydropyrrolo[3,4-c]pyrrol-2(1H)-yl)-N-(1-methyl-1H-pyrazol-4-yl)pyrimidin-2-amine] | 0.2 | 934 | 0.9

Results, then the compound that gave them:

IC50 [1] [nM] | IC50 [2] [nM] | IC50 [3] [nM] | SMILES
0.6 | 453 | 3.3 | Cn1cc(Nc2ncc(Cl)c(N3C[C@]4(C)CN(C(=O)CO)C[C@]4(C)C3)n2)cn1 [Compound 35, 1-((3aR,6aS)-5-(5-chloro-2-((1-methyl-1H-pyrazol-4-yl)amino)pyrimidin-4-yl)-3a,6a-dimethylhexahydropyrrolo[3,4-c]pyrrol-2(1H)-yl)-2-hydroxyethan-1-one]
1.8 | 592 | 4.1 | CCC(=O)N1C[C@@]2(C)CN(c3nc(Nc4cnn(C)c4)ncc3Cl)C[C@@]2(C)C1 [Compound 36, 1-((3aR.,6aS)-5-(5-chloro-2-((1-methyl-1H-pyrazol-4-yl)amino)pyrimidin-4-yl)-3a,6a-dimethylhexahydropyrrolo[3,4-c]pyrrol-2(1H)-yl)propan-1-one]
12 | 2100 | 15 | COCC(=O)N1C[C@@]2(C)CN(c3nc(Nc4cnn(C)c4)ncc3Cl)C[C@@]2(C)C1 [Compound 37, 1-((3aR,6aS)-5-(5-chloro-2-((1-methyl-1H-pyrazol-4-yl)amino)pyrimidin-4-yl)-3a,6a-dimethylhexahydropyrrolo[3,4-c]pyrrol-2(1H)-yl)-2-methoxyethan-1-one]
0.4 | 422 | 1.2 | Cn1cc(Nc2ncc(Cl)c(N3C[C@]4(C)CN(CC(F)(F)F)C[C@]4(C)C3)n2)cn1 [Compound 40, 5-chloro-4-((3aR,6aS)-3a,6a-dimethyl-5-(2,2,2-trifluoroethyl)hexahydropyrrolo[3,4-c]pyrrol-2(1H)-yl)-N-(1-methyl-1H-pyrazol-4-yl)pyrimidin-2-amine]
0.7 | 709 | 2.5 | Cn1cc(Nc2ncc(Cl)c(N3C[C@]4(C)CN(C(=O)CC(F)(F)F)C[C@]4(C)C3)n2)cn1 [Compound 48, 1-((3aR,6aS)-5-(5-chloro-2-((1-methyl-1H-pyrazol-4-yl)amino)pyrimidin-4-yl)-3a,6a-dimethylhexahydropyrrolo[3,4-c]pyrrol-2(1H)-yl)-3,3,3-trifluoropropan-1-one]
0.9 | 289 | 1.8 | Cn1cc(Nc2ncc(Cl)c(N3C[C@]4(C)CN(C(=O)CC(F)F)C[C@]4(C)C3)n2)cn1 [Compound 52]

Reference: US12448382B2, “Heterocyclic compounds for mediating tyrosine kinase 2 activity” (GUANGZHOU INNOCARE PHARMA TECH CO., LTD., priority 2019, dated 2025)
